Non-standard residues stand in square brackets, D forms with d. Residues, ends and D or L forms follow the SMILES beside them. No end group written: not given here. pY = N[C@@H](Cc1ccc(OP(=O)(O)O)cc1)C(=O)O
Assays:
talin F3 = biological target: T1, talin F3 (Mus musculus, UniProt P26039); experiment: 1H-15N HSQC NMR titration of talin F3 with peptides; assay type: binding; conditions: for perturbation of contact residues in the MP region: mutant chimeric peptides added to wild-type talin F3, MD site binding unchanged
T1 construct: labeled talin F3 domain was expressed and purified as described previously (de Pereda et al., 2005); made in house
Protocol: (§1) Talin F3 L325R and Q381V mutants were titrated with the original β3/PIPKIγ chimera, while the effect of peptide mutations (F727A and F730A) was assessed using wild-type talin F3.
We set out to obtain a structural explanation for the unusual ability of the talin PTB domain to activate integrins. An initial exploration of the interactions was carried out by adding various tail-derived β3-integrin peptides to the F3 sub-domain of talin, while monitoring the chemical shift perturbations in ^1H-^15N HSQC NMR spectra. The peptide sequences and the nomenclature used are set out in FIG. 1A. The MP peptide corresponds to the N-terminal region of the cytoplasmic β-tail. A peptide comprised of the β-tail region previously visualized in the crystal structure (Garcia-Alvarez et al., 2003), is denoted MD; this peptide primarily causes chemical shift perturbations in strand S5 (de Pereda et al., 2005).
(§2) ^1H-^15N-HSQC titrations were performed as previously described (de Pereda et al., 2005). Weighted shifts (Δδ(HN,N)) were calculated using the equation: Δδ(HN,N)=((ΔδHNWHN)^2+(ΔδNWN)^2)^1/2, where WHN and WN are weighting factors for the HN and N shifts respectively (WHN=1, WN=0.154) (Ayed et al., 2001) and Δδ=δbound−δfree. Talin F3 domains in complex with slow-exchanging peptides, as well as mutant F3 domains, were assigned by correlation to the wild-type talin F3 assignments (de Pereda et al., 2005) and confirmed using 3D gradient-enhanced [^1H-^15N]-NOESY-HSQC (τm=100 ms) spectra alone, or in combination with [^1H-^15N]-TOCSY-HSQC (τm=70 ms) spectra. ^13CO, ^13Cα and ^13Cβ shifts were obtained using a series of 2D ^1H-^15N-^13C experiments (Bersch et al., 2003). Bound peptide shifts were obtained using U—^15N,^2H F3 and unlabeled chimeric peptide (1.3:1). Both bound and unbound chimeric peptide shifts were assigned using 2D NOESY, TOCSY and COSY spectra. DOK PTB domain assignments were obtained previously (unpublished).

[1] = Solubility of peptide at the concentrations used for NMR; assay type: physicochemical
Source text: NMR studies of the interaction with full-length β3 cytoplasmic tail were more challenging. The off-rates of the complex correspond to an ‘intermediate exchange’ regime, with peaks broadening and disappearing rather than changing position. It was, however, possible to define perturbed residues by plotting the percentage decrease in peak height upon addition of the peptide (FIGS. 1D and 8). The perturbed residues are essentially the sum of those affected by the MD peptide and the MP peptide (FIGS. 1 and 8). The β3 tail/talin F3 interactions can thus be considered in two parts, one corresponding to the previously defined interaction at the MD-site, the other corresponding to the MP-site. […] This, together with exchange broadening of lines, made the β3 tail an unsuitable ligand for studying the structure of the talin-integrin complex by NMR at atomic resolution.

β3/PIPKIγ chimera = experiment: 1H-15N HSQC NMR titration of talin F3 mutants with chimeric peptide; conditions: talin F3 mutants titrated with the original β3/PIPKIγ chimera; MD site binding unchanged
Protocol: as §1
Mutations to the contact residues in talin F3 (L325R, S365D, S379R, or Q381V) were also made to see if they disrupted the F3/MP interaction.
as §2

Talin F3 W359A = biological target: T2, Talin F3 W359A (Mus musculus, UniProt P26039, W359A); experiment: Isothermal titration calorimetry, chimeric peptide binding to talin F3 mutant; conditions: ITC, relative to wild type talin F3
T2 construct: injected into the cell containing wildtype or mutant talin F3 domain; made in house
Protocol: Peptide concentrations were typically at 150 to 300 μM while protein concentrations ranged from 25 to 50 μM. For the W359A mutant, the protein concentration was 50 μM and the peptide concentration was 1 mM. Prior to ITC titrations, the peptides and proteins were in buffer consisting of 200 mM Tris, 300 mM NaCl, pH 7.5. All experiments were conducted at 23 degrees Celsius. […] The bottom panel is the binding curve, calculated using the software program Origin.
Thermodynamic parameters for the binding of WT and mutant talin F3 to the β3 chimeric peptides were measured using isothermal titration calorimetry (Table 2, FIG. 12). In general, mutations that disrupt the MP site, either in the β-tail or talin F3, have relatively little effect on the Kd values (Table 2). This probably arises because of a balance between enthalpy gain and entropy loss, consistent with stabilization of the MP helix on talin binding in the wild-type but not mutant structures. In sharp contrast, the talin (W359A) mutant, which inhibits binding of the MD-site of the β3 tail, reduced the affinity ˜1000 fold, similar to the effect of mutations in the NPxY region of the integrin tail, which abrogate MD binding (Ulmer et al., 2003).
Isothermal titration calorimetry (ITC) was performed on a VP-ITC calorimeter (Microcal, Northampton, Mass.). […] Experimental data were analyzed using Microcal Origin software.

T1 sequence (P26039 309-405 limits assumed): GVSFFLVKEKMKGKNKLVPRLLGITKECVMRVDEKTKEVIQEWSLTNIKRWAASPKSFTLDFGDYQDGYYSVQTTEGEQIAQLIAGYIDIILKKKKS
Sequence of β3/PIPKIγ chimera (as listed by the source, change not shown): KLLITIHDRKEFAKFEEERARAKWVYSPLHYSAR

## CC[C@H](C)[C@H](NC(=O)[C@H](CC(C)C)NC(=O)[C@H](CC(C)C)NC(=O)[C@H](CCCCN)NC(=O)[C@@H](N)CCCCN)C(=O)N[C@H](C(=O)N[C@H](C(=O)N[C@@H](Cc1c[nH]cn1)C(=O)N[C@@H](CC(=O)O)C(=O)N[C@@H](CCCNC(=N)N)C(=O)N[C@@H](CCCCN)C(=O)N[C@@H](CCC(=O)O)C(=O)N[C@@H](Cc1ccccc1)C(=O)N[C@@H](C)C(=O)N[C@@H](CCCCN)C(=O)N[C@@H](Cc1ccccc1)C(=O)N[C@@H](CCC(=O)O)C(=O)N[C@@H](CCC(=O)O)C(=O)N[C@@H](CCC(=O)O)C(=O)N[C@@H](CCCNC(=N)N)C(=O)N[C@@H](C)C(=O)N[C@@H](CCCNC(=N)N)C(=O)N[C@@H](C)C(=O)N[C@@H](CCCCN)C(=O)N[C@@H](Cc1c[nH]c2ccccc12)C(=O)N[C@H](C(=O)N[C@@H](Cc1ccc(OP(=O)(O)O)cc1)C(=O)N[C@@H](CO)C(=O)N1CCC[C@H]1C(=O)N[C@@H](CC(C)C)C(=O)N[C@@H](Cc1c[nH]cn1)C(=O)N[C@@H](Cc1ccc(O)cc1)C(=O)N[C@@H](CO)C(=O)N[C@@H](C)C(=O)N[C@@H](CCCNC(=N)N)C(=O)O)C(C)C)[C@@H](C)CC)[C@@H](C)O [β3 chimera] (H-KKLLITIHDRKEFAKFEEERARAKWV[pY]SPLHYSAR-OH; N-terminus and C-terminus assumed)
Talin F3; 25° C.
  binding to talin (NMR): bind to talin and form a tight, highly soluble 1:1 complex

## CC[C@H](C)[C@H](NC(=O)[C@H](CC(C)C)NC(=O)[C@H](CC(C)C)NC(=O)[C@H](CCCCN)NC(=O)[C@@H](N)CCCCN)C(=O)N[C@H](C(=O)N[C@H](C(=O)N[C@@H](Cc1c[nH]cn1)C(=O)N[C@@H](CC(=O)O)C(=O)N[C@@H](CCCNC(=N)N)C(=O)N[C@@H](CCCCN)C(=O)N[C@@H](CCC(=O)O)C(=O)N[C@@H](C)C(=O)N[C@@H](C)C(=O)N[C@@H](CCCCN)C(=O)N[C@@H](Cc1ccccc1)C(=O)N[C@@H](CCC(=O)O)C(=O)N[C@@H](CCC(=O)O)C(=O)N[C@@H](CCC(=O)O)C(=O)N[C@@H](CCCNC(=N)N)C(=O)N[C@@H](C)C(=O)N[C@@H](CCCNC(=N)N)C(=O)N[C@@H](C)C(=O)N[C@@H](CCCCN)C(=O)N[C@@H](Cc1c[nH]c2ccccc12)C(=O)N[C@H](C(=O)N[C@@H](Cc1ccc(OP(=O)(O)O)cc1)C(=O)N[C@@H](CO)C(=O)N1CCC[C@H]1C(=O)N[C@@H](CC(C)C)C(=O)N[C@@H](Cc1c[nH]cn1)C(=O)N[C@@H](Cc1ccc(O)cc1)C(=O)N[C@@H](CO)C(=O)N[C@@H](C)C(=O)N[C@@H](CCCNC(=N)N)C(=O)O)C(C)C)[C@@H](C)CC)[C@@H](C)O [β3 chimera F727A] (H-KKLLITIHDRKEAAKFEEERARAKWV[pY]SPLHYSAR-OH; N-terminus and C-terminus assumed)
Talin F3
  perturbation of contact residues in the MP region: markedly reduced

## CC[C@H](C)[C@H](NC(=O)[C@H](CC(C)C)NC(=O)[C@H](CC(C)C)NC(=O)[C@H](CCCCN)NC(=O)[C@@H](N)CCCCN)C(=O)N[C@H](C(=O)N[C@H](C(=O)N[C@@H](Cc1c[nH]cn1)C(=O)N[C@@H](CC(=O)O)C(=O)N[C@@H](CCCNC(=N)N)C(=O)N[C@@H](CCCCN)C(=O)N[C@@H](CCC(=O)O)C(=O)N[C@@H](Cc1ccccc1)C(=O)N[C@@H](C)C(=O)N[C@@H](CCCCN)C(=O)N[C@@H](C)C(=O)N[C@@H](CCC(=O)O)C(=O)N[C@@H](CCC(=O)O)C(=O)N[C@@H](CCC(=O)O)C(=O)N[C@@H](CCCNC(=N)N)C(=O)N[C@@H](C)C(=O)N[C@@H](CCCNC(=N)N)C(=O)N[C@@H](C)C(=O)N[C@@H](CCCCN)C(=O)N[C@@H](Cc1c[nH]c2ccccc12)C(=O)N[C@H](C(=O)N[C@@H](Cc1ccc(OP(=O)(O)O)cc1)C(=O)N[C@@H](CO)C(=O)N1CCC[C@H]1C(=O)N[C@@H](CC(C)C)C(=O)N[C@@H](Cc1c[nH]cn1)C(=O)N[C@@H](Cc1ccc(O)cc1)C(=O)N[C@@H](CO)C(=O)N[C@@H](C)C(=O)N[C@@H](CCCNC(=N)N)C(=O)O)C(C)C)[C@@H](C)CC)[C@@H](C)O [β3 chimera F730A] (H-KKLLITIHDRKEFAKAEEERARAKWV[pY]SPLHYSAR-OH; N-terminus and C-terminus assumed)
Talin F3
  perturbation of contact residues in the MP region: undetectable

## KLLITIHDRKEFAKFEEERARAKWDTANNPLYKEATSTFTNITYRGT [full-length β3 tail]
[1]
  solubility: limited solubility

B1: F3-Q381V: talin F3 domain mutant Q381V (protein)
chain: GVSFFLVKEKMKGKNKLVPRLLGITKECVMRVDEKTKEVIQEWSLTNIKRWAASPKSFTLDFGDYQDGYYSVVTTEGEQIAQLIAGYIDIILKKKKS
β3/PIPKIγ chimera
  perturbation of contact residues in the MP region: markedly reduced

B2: talin (W359A): talin F3 domain mutant W359A, inhibits binding of the MD-site of the β3 tail (protein)
chain: GVSFFLVKEKMKGKNKLVPRLLGITKECVMRVDEKTKEVIQEWSLTNIKRAAASPKSFTLDFGDYQDGYYSVQTTEGEQIAQLIAGYIDIILKKKKS
Talin F3 W359A
  reduction of affinity for the β3 chimeric peptide: ~1000 fold

B3: F3-L325R: talin F3 domain mutant L325R (protein)
chain: GVSFFLVKEKMKGKNKRVPRLLGITKECVMRVDEKTKEVIQEWSLTNIKRWAASPKSFTLDFGDYQDGYYSVQTTEGEQIAQLIAGYIDIILKKKKS
β3/PIPKIγ chimera
  perturbation of contact residues in the MP region: undetectable

From patent publication US8530621B2, “Combined preparation of a thiazide diuretic and a loop diuretic” (The Regents of the University of California, priority 2007, dated 2013)
